Test results from patent US20050148991A1, “Device for using patient blood as diluent in administering pharmaceuticals” (priority 2002, published 2005).

Experiment: early study in humans receiving RSR13 via injection in a peripheral vein
Assay type: in vivo
Excerpt: Therefore, the use of RSR13 and its physiologically acceptable salts in the present methods is contemplated. The preparation and uses for 2-[4-[2-[(3,5-dimethylphenyl)amino]-2-oxoethyl]phenoxy]-2-methyl-propionic acid and its physiologically acceptable salts has been described previously in U.S. Pat. Nos. 5,049,695; 5,122,539; 5,290,803; 5,432,191; 5,525,630; 5,648,375; 5,661,182; 5,677,330; 5,705,521; 5,872,888; and 5,927,283, and pending U.S. patent application Ser. No. 10/082,130, filed Feb. 25, 2002.

Compound: Cc1cc(C)cc(NC(=O)Cc2ccc(OC(C)(C)C(=O)O)cc2)c1 [RSR13, 2-[4-[2-[(3,5-dimethylphenyl)amino]-2-oxoethyl]phenoxy]-2-methyl-propionic acid]
- pain on injection: some recipients complained of pain near the site of injection and downstream
